Test results reported in ChEMBL document CHEMBL1250519, “Design, synthesis, and biological evaluation of halogenated N-(2-(4-oxo-1-phenyl-1,3,8-triazaspiro[4.5]decan-8-yl)ethyl)benzamides: discovery of an isoform-selective small molecule phospholipase D2 inhibitor” (J Med Chem, 2010).
Calls of active or inactive are those of the source. The calls are words filed in the database; no cut-off is given here.

Experiments:
[1] = molecular target: T1, Phospholipase D1 (Homo sapiens) (UniProt Q13393); assay type: cell-based; conditions: MDA-MB-231, 10 uM
T1 sequence (whole entry): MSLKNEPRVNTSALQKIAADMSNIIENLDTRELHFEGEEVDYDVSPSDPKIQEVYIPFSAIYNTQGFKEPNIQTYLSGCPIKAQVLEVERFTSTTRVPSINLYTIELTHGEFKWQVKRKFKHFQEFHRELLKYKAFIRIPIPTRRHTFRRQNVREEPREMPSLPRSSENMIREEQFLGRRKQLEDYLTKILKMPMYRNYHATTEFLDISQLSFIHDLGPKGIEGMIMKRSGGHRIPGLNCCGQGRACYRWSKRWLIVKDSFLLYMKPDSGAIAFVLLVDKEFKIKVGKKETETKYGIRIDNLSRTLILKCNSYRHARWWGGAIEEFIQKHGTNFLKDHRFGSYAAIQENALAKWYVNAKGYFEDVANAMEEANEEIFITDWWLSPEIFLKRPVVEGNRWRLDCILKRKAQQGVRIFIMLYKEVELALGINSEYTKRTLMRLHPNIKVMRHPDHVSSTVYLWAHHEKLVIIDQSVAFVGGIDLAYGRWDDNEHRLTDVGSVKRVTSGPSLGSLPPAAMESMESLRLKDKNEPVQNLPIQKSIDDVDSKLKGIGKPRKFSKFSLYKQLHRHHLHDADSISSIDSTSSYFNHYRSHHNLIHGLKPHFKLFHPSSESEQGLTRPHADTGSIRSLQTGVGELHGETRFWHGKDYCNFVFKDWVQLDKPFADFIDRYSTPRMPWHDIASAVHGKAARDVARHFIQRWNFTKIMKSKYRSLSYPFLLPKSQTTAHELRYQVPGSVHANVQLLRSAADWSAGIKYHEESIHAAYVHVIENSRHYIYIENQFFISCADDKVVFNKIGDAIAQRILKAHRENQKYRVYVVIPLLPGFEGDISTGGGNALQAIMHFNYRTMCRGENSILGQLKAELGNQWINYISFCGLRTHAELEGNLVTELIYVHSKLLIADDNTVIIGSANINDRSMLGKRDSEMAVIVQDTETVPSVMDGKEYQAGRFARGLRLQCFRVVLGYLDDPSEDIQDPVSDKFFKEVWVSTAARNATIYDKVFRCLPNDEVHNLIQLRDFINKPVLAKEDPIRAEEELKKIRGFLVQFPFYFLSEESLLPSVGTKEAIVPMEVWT

Phospholipase D1 = molecular target: T2, Phospholipase D1 (Homo sapiens, UniProt Q13393)
T2 sequence (Q13393 whole entry): T1 sequence (whole entry)
Description: Inhibition of PLD1 in human calu1 cells

Phospholipase D2 = Phospholipase D2 (Homo sapiens, UniProt O14939)
Sequence of Phospholipase D2 (O14939 whole entry): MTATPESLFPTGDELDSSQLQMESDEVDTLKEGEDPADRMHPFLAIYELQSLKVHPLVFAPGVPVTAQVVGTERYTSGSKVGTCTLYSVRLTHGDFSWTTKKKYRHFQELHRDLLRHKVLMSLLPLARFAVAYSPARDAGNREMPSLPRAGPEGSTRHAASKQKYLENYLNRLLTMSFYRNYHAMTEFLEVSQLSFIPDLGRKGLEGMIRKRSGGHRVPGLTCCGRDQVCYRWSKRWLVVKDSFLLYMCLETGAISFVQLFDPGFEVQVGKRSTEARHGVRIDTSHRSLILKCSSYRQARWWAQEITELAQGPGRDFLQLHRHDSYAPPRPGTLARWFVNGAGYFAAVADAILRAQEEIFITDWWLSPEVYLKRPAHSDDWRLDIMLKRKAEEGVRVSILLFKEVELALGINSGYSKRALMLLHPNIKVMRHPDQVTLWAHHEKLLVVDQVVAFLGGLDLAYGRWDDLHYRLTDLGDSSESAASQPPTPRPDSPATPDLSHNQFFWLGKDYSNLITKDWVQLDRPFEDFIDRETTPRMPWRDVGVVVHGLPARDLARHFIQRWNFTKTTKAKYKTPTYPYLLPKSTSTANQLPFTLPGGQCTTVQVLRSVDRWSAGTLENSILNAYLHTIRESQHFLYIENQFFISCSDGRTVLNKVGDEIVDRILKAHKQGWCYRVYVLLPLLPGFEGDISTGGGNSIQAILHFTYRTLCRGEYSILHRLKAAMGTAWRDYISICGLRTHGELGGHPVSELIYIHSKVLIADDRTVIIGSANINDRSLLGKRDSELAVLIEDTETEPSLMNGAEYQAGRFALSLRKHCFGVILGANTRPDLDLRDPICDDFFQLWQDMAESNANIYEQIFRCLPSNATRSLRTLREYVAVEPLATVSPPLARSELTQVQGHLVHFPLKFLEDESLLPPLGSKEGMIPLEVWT
Description: Inhibition of human GST-tagged PLD2A in human HEK293 cells

Homo sapiens = species: Homo sapiens; assay: Selectivity ratio of IC50 for human PLD1 to IC50 for human GST-tagged PLD2A

| SMILES | inhibition [1] | IC50 (Phospholipase D1) [nM] | IC50 (Phospholipase D2) [nM] | Selectivity ratio (Homo sapiens) |
| --- | --- | --- | --- | --- |
| C[C@@H](CN1CCC(n2c(=O)[nH]c3cc(Br)ccc32)CC1)NC(=O)[C@H]1C[C@@H]1c1ccccc1 | Active | – | – | – |
| C[C@@H](CN1CCC2(CC1)C(=O)NCN2c1cccc(F)c1)NC(=O)c1ccc2ccccc2c1 | – | 10 | 60 | – |
| O=C(NCCN1CCC2(CC1)C(=O)NCN2c1ccc(Br)cc1)c1cc2cc(F)ccc2[nH]1 | – | 2660 | 100 | 27 |
| O=C(NCCN1CCC2(CC1)C(=O)NCN2c1ccc(F)cc1)c1cnc2ccccc2c1 | – | 2000 | 40 | 50 |
| O=C(NCCN1CCC2(CC1)C(=O)NCN2c1ccc(F)c(F)c1)c1cc2cc(F)ccc2[nH]1 | – | 390 | 100 | 4 |
| O=C(NCCN1CCC2(CC1)C(=O)NCN2c1cccc(Cl)c1)c1cc2cc(F)ccc2[nH]1 | – | 250 | 73 | 3.4 |
| O=C(NCCN1CCC2(CC1)C(=O)NCN2c1cccc(Cl)c1)c1ccc2ccccc2c1 | – | 1200 | 290 | 4 |
| O=C(NCCN1CCC2(CC1)C(=O)NCN2c1ccc(F)c(F)c1)c1ccc(F)cc1 | – | 5780 | 660 | 9 |
| O=C(NCCN1CCC2(CC1)C(=O)NCN2c1ccc(F)c(F)c1)c1cnc2ccccc2c1 | – | 2060 | 70 | 30 |
| O=C(NCCN1CCC2(CC1)C(=O)NCN2c1ccc(F)cc1)c1cc2cc(F)ccc2[nH]1 | – | 290 | 30 | 9 |
| O=C(NCCN1CCC2(CC1)C(=O)NCN2c1ccc(Br)cc1)c1ccc(F)cc1 | – | 10000 | 8000 | 1 |
| O=C(NCCN1CCC2(CC1)C(=O)NCN2c1cccc(F)c1)c1cc2cc(F)ccc2[nH]1 | – | 210 | 25 | 8 |
| O=C(NCCN1CCC2(CC1)C(=O)NCN2c1cccc(Cl)c1)c1ccc(F)cc1 | – | 3470 | 70 | 50 |
| O=C(NCCN1CCC2(CC1)C(=O)NCN2c1ccc(Br)cc1)c1cnc2ccccc2c1 | – | 2700 | 360 | 8 |
| O=C(NCCN1CCC2(CC1)C(=O)NCN2c1ccc(Cl)cc1)c1ccc2ccccc2c1 | – | 2270 | 655 | 3.5 |
| O=C(NCCN1CCC2(CC1)C(=O)NCN2c1ccc(F)cc1)c1ccc(F)cc1 | – | 14000 | 610 | 23 |
| O=C(NCCN1CCC2(CC1)C(=O)NCN2c1cccc(Cl)c1)c1cnc2ccccc2c1 | – | 870 | 165 | 5 |
| O=C(NCCN1CCC2(CC1)C(=O)NCN2c1cccc(F)c1)c1ccc(F)cc1 | – | – | 6700 | – |
| O=C(NCCN1CCC2(CC1)C(=O)NCN2c1ccc(Cl)cc1)c1cc2cc(F)ccc2[nH]1 | – | 335 | 50 | 7 |
| O=C(NCCN1CCC2(CC1)C(=O)NCN2c1ccc(F)cc1)c1ccc2ccccc2c1 | – | 1700 | 80 | 21 |
| O=C(NCCN1CCC2(CC1)C(=O)NCN2c1cccc(F)c1)c1cnc2ccccc2c1 | – | 2500 | 63 | 40 |
| O=C(NCCN1CCC2(CC1)C(=O)NCN2c1ccc(Br)cc1)c1ccc2ccccc2c1 | – | 5900 | 350 | 17 |
| O=C(NCCN1CCC2(CC1)C(=O)NCN2c1ccc(Cl)cc1)c1cnc2ccccc2c1 | – | 3500 | 200 | 17 |
| O=C(NCCN1CCC2(CC1)C(=O)NCN2c1ccc(Cl)cc1)c1ccc(F)cc1 | – | 5590 | 5670 | 1 |
